# “Also recorded” adds a separate entry of the source.
# Tests used:
# HES1 = experiment: Notch target gene HES1 expression by real time RT-PCR; type: cell-based; conditions: UMR 206 cells, PGE2 treatment, starting at 24 hours
# Experimental: FIG. 3 is a graph showing that PGE2 treatment in UMR 206 cells increased expression of the Notch target gene HES1 as determined by real time RT-PCR analysis starting at 24 hours.
# At the designated times, total RNA and protein were harvested. Total RNA was extracted and analyzed by real time RT-PCR, normalizing for β-actin expression and t=0. Total protein was analyzed by Western blots performed using the XCELL SURELOCK™ system (Invitrogen, Carlsbad, Calif.). Blots were probed with Jag1 c-20 antibody (Santa Cruz Biotechnology, Inc., Santa Cruz, Calif.), and the loading control was B-actin.
# bone = experiment: Bone analysis (microCT, histology) of PGE2-treated mice; type: in vivo
# Experimental: FIG. 6A is a graph showing quantification of bone volume performed by microCT analysis of femora from mice treated with PGE2 (6 mg/kg i.p. daily for 16 days (n=8)).
# Adult C57Bl/6 male mice were treated with PGE2 for 16 days.
# hematopoietic stem cells = experiment: HSC frequency by flow cytometric analysis of lin-, sca+, kit+ (LSK/KSL) bone marrow cells; type: in vivo, mice
# Experimental: FIG. 7A is a graph showing KSL frequency at 4 days. FIG. 7B is a graph showing KSL frequency at 8 days. FIG. 7C is a graph showing KSL frequency at 12 days. FIG. 7D is a graph showing KSL frequency at 16 days.
# FIG. 9 is a graph showing the percent of HSCs in total bone marrow following in vivo administration of PGE2 in C57bl/6 mice. Eight to ten week old WT C5bl/6 mice given IP injections twice daily for 16 days of either 6 mg/kg PGE2 or vehicle (n=4 for each group). The left hind limb of each mouse was harvested, the bone marrow flushed out and the cells stained with lineage markers, sca-1 and c-kit. DAPI was used for a viability stain. The lin−, sca+, kit+ population was gated using FlowJo software for both PGE2 treated and vehicle treated samples. There was a 66% increase in lin−, sca+, kit+ (LSK) cells in PGE2 vs. vehicle treated mice (p=0.0093). As used herein, LSK and KSL frequency are used interchangeably.
# Eight to ten week old FVB/N male mice were injected intraperitoneally once or twice daily for 16 days with either PGE2 (6 mg/kg body weight) or vehicle. Left hind limbs were harvested, fixed, decalcified, and processed. Right hindlimbs were harvested at the same time. The bone marrow was flushed and stained for FACS analysis with scal, ckit, and lineage marker antibodies.
# In order to determine if the number of HSCs was increased in vivo by PGE2, eight to ten week old FVB/N mice were given daily IP injections for 16 days of either 6 mg/kg PGE2 or Vehicle. The left hind limb of each mouse was harvested, the bone marrow was flushed out, and the cells were stained with lineage markers, sca-1 and c-kit. DAPI was used for a viability stain. The lin−sca+ckit+population was gated using FlowJo software (FlowJo, Ashland, Oreg.) for both PGE2 treated and VEH treated samples. […] The same procedure was performed on C57bl/g mice.
# [1] = system: intermediate progenitors of hematopoietic stem cells; experiment: Colony forming unit-cell (CFU-C) assay of bone marrow mononuclear cells from treated mice; type: in vivo
# Description: (§1) FIG. 8 is a graph showing that intermediate progenitors of hematopoietic stem cells are not increased by PGE2 treatment. Therefore, PGE2 specifically increases HSCs. The bone marrow mononuclear cells from mice treated with vehicle and PGE2 using colony forming unit-cell (CF-C) activity in vitro. […] Peripheral white blood cell and hematocrit levels were not changed in PGE2 vs. vehicle treated mice at 16 days (WBC counts: vehicle averaged 5.75±0.20×10^3/μl; PGE2 averaged 4.72±0.61×10^3/μl) (Hematocrit: vehicle averaged 42±1%; PGE2 averaged 43±2%) (n=6 for each treatment group).
# (§2) FIG. 8 is a graph showing that intermediate progenitors of hematopoietic stem cells are not increased by PGE2 treatment. Therefore, PGE2 specifically increases HSCs. The bone marrow mononuclear cells from mice were treated with vehicle and PGE2 to determine if there was an increase in intermediate progenitors in response to PGE2 using the colony forming unit-cell (CFU-C) assay. […] In addition, peripheral white blood cell and hematocrit levels were not changed in PGE2 vs. vehicle treated mice at 16 days (WBC counts: vehicle averaged 5.75±0.20×10^3/μl; PGE2 averaged 4.72±0.61×10^3/μl) (Hematocrit: vehicle averaged 42±1%; PGE2 averaged 43±2%) (n=6 for each treatment group).
# The opposite limb of the same mice was used for flow cytometric analysis, in vitro progenitor CFU-C assays and competitive repopulation. […]
# [2] = design: species or system mice; conditions: mouse, in vivo
# Description: as §1, §2
# ST-HSC = experiment: Competitive repopulation in lethally irradiated recipients; type: in vivo, mice; conditions: donor CD45.2 to competitor CD45.1 1:2, effect limited to short-term (up to 6 weeks)
# Experimental: FIGS. 11A, 11B and 11C are graphs showing engraftment data from peripheral blood from competitive repopulation analysis from CD45.2+c57bl/6 mice treated daily with PGE2 (6 mg/kg i.p. twice daily) (n=8 mice per treatment group, n=10 recipient mice per group, 2 experiments).
# This effect was limited to the short-term (up to 6 weeks) (FIGS. 11A, 11B and 11C), illustrating specific ST-HSC expansion. This is a unique in vivo model of selective ST-HSC increase. This effect is best illustrated by the short lived CD11b+myeloid subset (FIGS. 11A, 11B and 11C).
# HSC subsets = experiment: LSK subset analysis based on Flt3 and Thy1.1 expression; type: in vivo, mice
# Experimental: FIGS. 12A and 12B are representative plots of flow cytometric strategy of LSK subset from bone marrow of individual vehicle and PGE2-treated mice, numbers in the quadrant represent percentage of LSK.
# To further confirm this targeted PGE2 effect, LSK subset analysis based on Flt3 and Thy1.1 expression was performed. […] (n=4 per treatment group).
smiles,measurement,setting,value
"CCCCC[C@H](O)/C=C/[C@H]1[C@H](O)CC(=O)[C@@H]1C/C=C\CCCC(=O)O [PGE2, Prostaglandin E2]",expression of the Notch target gene HES1,HES1,increased
same,"bone anabolic effect in long bones, histologically or by micro-CT imaging","bone; adult C57Bl/6 male mice, 16 days",no evidence of a significant bone anabolic effect
same,bone volume by microCT analysis,"bone; adult FVB/N male mice, 6 mg/kg/day i.p., day 12",no significant increase
same,cortical width of the tibia,bone; in vivo treatment with PGE2,significantly increased
same,tibial metaphyseal trabecularization,bone; in vivo treatment with PGE2,increased
same,"increase in lin−, sca+, kit+ (LSK) cells vs. vehicle","hematopoietic stem cells; C57bl/6 mice, 6 mg/kg IP twice daily for 16 days, n=4",66%
same,percent of HSCs (KSL) in total bone marrow,"hematopoietic stem cells; FVB/N mice, 6 mg/kg IP daily, 4 to 16 days, vs vehicle, 6 mg/kg",trend towards an increase; also recorded: increased significantly
same,increase of HSC enriched LSK subpopulation,"hematopoietic stem cells; adult C57Bl/6 male mice, 16 days, n=8 per group",3.5 fold
same,CFU-C frequency,"[1]; BMMC from C57Bl/6 mice treated 16 days, Example 2",No evidence of PGE2 effects
same,CFU-C frequency,"[1]; BMMC from treated mice, Example 1",did not increase
same,Hematocrit,[2],43±2%
same,peripheral platelets,[2],not changed
same,multilineage reconstitution by donor cells from treated mice,ST-HSC,superior multilineage reconstitution
same,MPP (Flt3+Thy1.1- LSK) quantification from bone marrow,"HSC subsets; n=4, p 0.007 vs vehicle",0.0305 ± 0.002398
same,ST-HSC (Flt3+Thy1.1int LSK) quantification from bone marrow,"HSC subsets; n=4, p 0.0307 vs vehicle",0.02725 ± 0.003568
same,LT-HSC (Flt3−Thy1.1int LSK) quantification from bone marrow,"HSC subsets; n=4, p 0.1069 (NS) vs vehicle",0.01264 ± 0.002233

# Reference: patent US9394520B2, “Expansion of hematopoietic stem cells” (University of Rochester, priority 2006, dated 2016)
